Assay results taken from patent US9399646B2 (Genentech, Inc., priority 2010, dated 2016).

Columns and labels:
MCF-7 cells = assay: Breast cancer cell viability assay (CellTiter-Glo, 5 days); assay type: cell-based; details: 5 days' compound exposure; for IC50: Homo sapiens, MCF7, 120 h
How it was run: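 MCF-7 cells, 320 per well in RPMI with 10% FBS and 20 mM HEPES, adhered overnight, then exposed 5 days to an eleven-point semilog dilution (final 0.3-0.000003 μM). CellTiter-Glo luminescence read; % viability = (sample − cell-free background)/(untreated − background) × 100.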

ER-α in MCF-7 cells = molecular target: T1, ER-α in MCF-7 cells (Homo sapiens, UniProt P03372); assay: Breast cancer cell ER-α in cell western assay (SP1); assay type: cell-based; parameters: endogenous in cells; host or cells: MCF-7; details: 4 or 24 hr post compound addition; for Emax: MCF7, SP1 antibody, read-out: ER-α In Cell Western Assay (SP1) Max Response; for DC50: SP1 antibody, read-out: ER-α In Cell Western Assay (SP1) IC50
T1 sequence (P03372 1-595): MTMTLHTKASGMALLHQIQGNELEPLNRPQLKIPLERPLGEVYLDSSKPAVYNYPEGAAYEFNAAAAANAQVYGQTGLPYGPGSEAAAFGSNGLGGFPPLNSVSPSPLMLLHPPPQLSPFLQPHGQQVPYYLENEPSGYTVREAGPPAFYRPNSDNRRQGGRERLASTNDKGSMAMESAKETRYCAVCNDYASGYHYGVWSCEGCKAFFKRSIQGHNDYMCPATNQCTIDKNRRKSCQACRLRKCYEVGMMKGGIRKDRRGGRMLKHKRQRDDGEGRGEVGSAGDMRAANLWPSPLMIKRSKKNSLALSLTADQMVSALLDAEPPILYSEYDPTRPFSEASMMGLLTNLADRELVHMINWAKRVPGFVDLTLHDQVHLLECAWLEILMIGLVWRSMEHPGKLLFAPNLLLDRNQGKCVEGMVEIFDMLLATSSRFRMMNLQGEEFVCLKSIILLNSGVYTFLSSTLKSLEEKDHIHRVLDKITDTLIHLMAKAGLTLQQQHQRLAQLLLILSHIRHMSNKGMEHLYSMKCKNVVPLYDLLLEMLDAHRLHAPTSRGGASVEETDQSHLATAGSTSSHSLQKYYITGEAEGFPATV
How it was run: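 ER-α protein levels were measured in MCF-7 cells after 4 or 24 hr compound exposure (final 0.3–0.000003 μM) in RPMI containing 10% charcoal-stripped FBS.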

Structure (SMILES) | MCF7 Viability Assay Max Response (MCF-7 cells) | IC50 (MCF-7 cells) | Emax (ER-α in MCF-7 cells) | DC50 (ER-α in MCF-7 cells)
Cc1cscc1/C(=C(\c1ccc(/C=C/C(=O)O)cc1)c1ccc2[nH]nc(F)c2c1)C1CCC1 [Compound 313, (E)-3-(4-((E)-2-Cyclobutyl-1-(3-fluoro-1H-indazol-5-yl)-2-(4-methylthiophen-3-yl)vinyl)phenyl)acrylic acid] | ++ (++ = a single % value ≧ 40%) | ≤ 100 nM | ≥ 40% | ≤ 100 nM
CC/C(=C(/c1ccc(/C=C/C(=O)O)cc1)c1ccc2[nH]ncc2c1)c1ccc2sncc2c1 [Compound 314, (E)-3-(4-((E)-2-(Benzo[d]isothiazol-5-yl)-1-(1H-indazol-5-yl)but-1-en-1-yl)phenyl)acrylic acid] | ++ (++ = a single % value ≧ 40%) | ≤ 100 nM | ≥ 40% | ≤ 100 nM
CC/C(=C(/c1ccc(/C=C/C(=O)O)cc1)c1ccc2[nH]ncc2c1)c1ccc(Oc2ccncc2)cc1 [Compound 315, (E)-3-(4-((E)-1-(1H-Indazol-5-yl)-2-(4-(pyridin-4-yloxy)phenyl)but-1-en-1-yl)phenyl)acrylic acid] | ++ (++ = a single % value ≧ 40%) | ≤ 100 nM | ≥ 40% | ≤ 100 nM
CC/C(=C(/c1ccc(/C=C/C(=O)O)cc1)c1ccc2[nH]ncc2c1)c1ccc(Oc2ccccn2)cc1 [Compound 316, (E)-3-(4-((E)-1-(1H-Indazol-5-yl)-2-(4-(pyridin-2-yloxy)phenyl)but-1-en-1-yl)phenyl)acrylic acid] | ++ (++ = a single % value ≧ 40%) | ≤ 100 nM | ≥ 40% | ≤ 100 nM
CC/C(=C(/c1ccc(/C=C/C(=O)O)cc1)c1ccc2[nH]ncc2c1)c1ccc(Cc2ccccc2)cc1 [Compound 317, (E)-3-(4-((E)-2-(4-Benzylphenyl)-1-(1H-indazol-5-yl)but-1-en-1-yl)phenyl)acrylic acid] | ++ (++ = a single % value ≧ 40%) | ≤ 100 nM | ≥ 40% | ≤ 100 nM
CC/C(=C(/c1ccc(/C=C/C(=O)O)cc1)c1ccc2[nH]ncc2c1)c1ccc(C)c(Oc2ccccc2)c1 [Compound 318, (E)-3-(4-((E)-1-(1H-Indazol-5-yl)-2-(4-methyl-3-phenoxyphenyl)but-1-en-1-yl)phenyl)acrylic acid] | ++ (++ = a single % value ≧ 40%) | > 100 nM | ≥ 40% | ≤ 100 nM
CC/C(=C(/c1ccc(/C=C/C(=O)O)cc1)c1ccc2[nH]ncc2c1)c1ccc(Oc2ccccc2)cc1C [Compound 319, (E)-3-(4-((E)-1-(1H-Indazol-5-yl)-2-(2-methyl-4-phenoxyphenyl)but-1-en-1-yl)phenyl)acrylic acid] | ++ (++ = a single % value ≧ 40%) | ≤ 100 nM | ≥ 40% | ≤ 100 nM
CC/C(=C(/c1ccc(/C=C/C(=O)O)cc1)c1ccc2[nH]ncc2c1)c1ccc(Oc2ccccc2)c(C)c1 [Compound 320, (E)-3-(4-((E)-1-(1H-Indazol-5-yl)-2-(3-methyl-4-phenoxyphenyl)but-1-en-1-yl)phenyl)acrylic acid] | ++ (++ = a single % value ≧ 40%) | ≤ 100 nM | ≥ 40% | ≤ 100 nM
CC/C(=C(/c1ccc(/C=C/C(=O)O)cc1)c1ccc2[nH]ncc2c1)c1cccc(Oc2cccc(S(C)(=O)=O)c2)c1 [Compound 321, (E)-3-(4-((E)-1-(1H-Indazol-5-yl)-2-(3-(3-(methylsulfonyl)phenoxy)phenyl)but-1-en-1-yl)phenyl)acrylic acid] | ++ (++ = a single % value ≧ 40%) | ≤ 100 nM | ≥ 40% | ≤ 100 nM
CC/C(=C(/c1ccc(/C=C/C(=O)O)cc1)c1ccc2[nH]ncc2c1)c1cccc(CC(=O)O)c1 [Compound 327, (E)-3-(4-((E)-2-(3-(Carboxymethyl)phenyl)-1-(1H-indazol-5-yl)but-1-en-1-yl)phenyl)acrylic acid] | + (+ = a single % value < 40%) | > 100 nM | < 40% | > 100 nM
CC/C(=C(/c1ccc(/C=C/C(=O)O)cc1)c1ccc2[nH]ncc2c1)c1ccc(CC(=O)O)cc1 [Compound 328, (E)-3-(4-((E)-2-(4-(Carboxymethyl)phenyl)-1-(1H-indazol-5-yl)but-1-en-1-yl)phenyl)acrylic acid] | + (+ = a single % value < 40%) | > 100 nM | < 40% | > 100 nM
CC/C(=C(/c1ccc(OC[C@H](C)N2CC[C@@H](C)C2)cc1)c1ccc2[nH]ncc2c1)c1ccccc1 [Compound 329, 5-((E)-1-(4-((S)-2-((R)-3-Methylpyrrolidin-1-yl)propoxy)phenyl)-2-phenylbut-1-en-1-yl)-1H-indazole] | ++ (++ = a single % value ≧ 40%) | ≤ 100 nM | ≥ 40% | ≤ 100 nM
CC/C(=C(/c1ccc(OC[C@H](C)N2CC[C@@H](C)C2)cc1)c1ccc2[nH]ncc2c1)c1ccccc1Cl [Compound 330, 5-((E)-2-(2-Chlorophenyl)-1-(4-((S)-2-((R)-3-methylpyrrolidin-1-yl)propoxy)phenyl)but-1-en-1-yl)-1H-indazole] | ++ (++ = a single % value ≧ 40%) | ≤ 100 nM | ≥ 40% | ≤ 100 nM
CC/C(=C(/c1ccc(OC[C@H](C)N2CC[C@@H](C)C2)cc1)c1ccc2[nH]ncc2c1)c1ccncc1Cl [Compound 331, 5-((E)-2-(3-Chloropyridin-4-yl)-1-(4-((S)-2-((R)-3-methylpyrrolidin-1-yl)propoxy)phenyl)but-1-en-1-yl)-1H-indazole] | ++ (++ = a single % value ≧ 40%) | ≤ 100 nM | ≥ 40% | ≤ 100 nM
CC/C(=C(/c1ccc(OC2(C(=O)O)CC2)cc1)c1ccc2[nH]ncc2c1)c1ccc(F)cc1Cl [Compound 332, (E)-1-(4-(2-(2-Chloro-4-fluorophenyl)-1-(1H-indazol-5-yl)but-1-en-1-yl)phenoxy)cyclopropanecarboxylic acid] | ++ (++ = a single % value ≧ 40%) | > 100 nM | ≥ 40% | > 100 nM
CC/C(=C(/c1ccc(-c2cc(O)no2)cc1)c1ccc2[nH]ncc2c1)c1ccc(F)cc1Cl [Compound 333, (E)-5-(4-(2-(2-Chloro-4-fluorophenyl)-1-(1H-indazol-5-yl)but-1-en-1-yl)phenyl)isoxazol-3-ol] | ++ (++ = a single % value ≧ 40%) | ≤ 100 nM | ≥ 40% | ≤ 100 nM
CC/C(=C(/c1ccc(-c2cc(O)on2)cc1)c1ccc2[nH]ncc2c1)c1ccc(F)cc1Cl [Compound 334, (E)-3-(4-(2-(2-Chloro-4-fluorophenyl)-1-(1H-indazol-5-yl)but-1-en-1-yl)phenyl)isoxazol-5-ol] | + (+ = a single % value < 40%) | > 100 nM | ≥ 40% | ≤ 100 nM
CC/C(=C(/c1ccc(CCC(=O)O)cc1)c1ccc2[nH]ncc2c1)c1ccccc1 [Compound 338, (E)-3-(4-(1-(1H-Indazol-5-yl)-2-phenylbut-1-en-1-yl)phenyl)propanoic acid] | ++ (++ = a single % value ≧ 40%) | > 100 nM | ≥ 40% | ≤ 100 nM
CC/C(=C(/c1ccc(/C=C/C(=O)O)cc1)c1ccc2[nH]ncc2c1)c1ccc(OCCOC)cc1 [Compound 339, (E)-3-(4-((E)-1-(1H-Indazol-5-yl)-2-(4-(2-methoxyethoxy)phenyl)but-1-en-1-yl)phenyl)acrylic acid] | ++ (++ = a single % value ≧ 40%) | ≤ 100 nM | ≥ 40% | ≤ 100 nM
CC/C(=C(/c1ccc(/C=C/C(=O)O)cc1)c1ccc2[nH]ncc2c1)c1ccc(OCCCOC)cc1 [Compound 340, (E)-3-(4-((E)-1-(1H-Indazol-5-yl)-2-(4-(3-methoxypropoxy)phenyl)but-1-en-1-yl)phenyl)acrylic acid] | ++ (++ = a single % value ≧ 40%) | ≤ 100 nM | ≥ 40% | ≤ 100 nM
CC/C(=C(/c1ccc(/C=C/C(=O)O)cc1)c1ccc2[nH]ncc2c1)c1cccc(OCCOC)c1 [Compound 341, (E)-3-(4-((E)-1-(1H-Indazol-5-yl)-2-(3-(2-methoxyethoxy)phenyl)but-1-en-1-yl)phenyl)acrylic acid] | ++ (++ = a single % value ≧ 40%) | ≤ 100 nM | ≥ 40% | ≤ 100 nM
